Test results from patent publication US12016860B2, “Combination therapies with Cbl-b inhibitor compounds” (Nurix Therapeutics, Inc., priority 2021, dated 2024).

Experiments:
[1] = system: DoTc 4510 (BRCA2 mutated) cells; assay: Caspase 3/7 apoptosis Incucyte assay with olaparib, DoTc 4510; assay type: cell-based; conditions: vs 0.05% DMSO, combination also vs single agents p<0.0001
Protocol: (§1) BT549 (BRCA wild type) (A) and DoTc 4510 (BRCA2 mutated) (B) cells were seeded in duplicate into tissue culture treated black-sided, clear-bottom 96-well plates at 5,000^cells/well and allowed to adhere and establish for 24 h. Cells were treated with indicated concentrations of DMSO, compound 23, or Olaparib (FIGS. 13A and 13B) either alone or in combination and were labelled with 1× Essen Bioscience IncuCyte® Caspase-3/7 Green Reagent (final concentration 5 μM). Treated plates were imaged every 2 hours for 72 hours with the IncuCyte® S3 Live-Cell Analysis System. At each timepoint, one image per well was taken in both brightfield and FITC channels on the IncuCyte® S3 Live-Cell Analysis System. Images were analyzed for number of green objects per mm^2 using the IncuCyte S3 v2017A software.

[2] = system: BT549 (BRCA wild type) cells; assay: Caspase 3/7 apoptosis Incucyte assay with olaparib, BT549; assay type: cell-based; conditions: 1 μM compound 23, 0.05 μM olaparib, vs 0.05% DMSO, combination also vs single agents p<0.0001
Protocol: as §1
Using a caspase 3/7 apoptosis Incucyte assay, the effect of compound 23, PARPi and the combination of compound 23, and PARPi on tumor cell apoptosis was assessed in both BRCA wild type and mutated tumor cell lines in vitro.

[3] = system: BT549 tumor cell line; assay: Caspase 3/7 apoptosis Incucyte assay with paclitaxel, BT549; assay type: cell-based; conditions: 0.1 μM compound 23, 0.002 μM paclitaxel, vs 0.05% DMSO, combination also vs single agents p<0.0001
Protocol: as §1, with “BT549” for “BT549 (BRCA wild type) (A) and DoTc 4510 (BRCA2 mutated) (B)”, “5,000 ^cells/well” for “5,000^cells/well”, “with” for “with indicated concentrations of”, “Paclitaxel” for “Olaparib (FIGS. 13A and 13B)”, “48” for “72”
Using a caspase 3/7 apoptosis Incucyte® assay, the effect of compound 23, paclitaxel and the combination of compound 23 and paclitaxel on tumor cell apoptosis was assessed in the BT549 tumor cell line (a mammary gland carcinoma) in vitro.

[4] = system: Raji cells; assay: Raji human non-Hodgkin's lymphoma model in SCID mice, combination with rituximab
Protocol: Female CB17 mice with severe combined immunodeficiency (SCID) were intravenously (IV) injected in the tail vein with Raji cells on Day 0 and treated from Day 5 to Day 37 by administration of either: vehicle (0.5% methylcellulose, 0.2% Polysorbate 80 in deionized water+1 eq HCl) daily, orally (PO) or compound 23 at 30 mg/kg daily, PO. Anti-CD20 antibody (rituximab) at 20 mg/kg was intraperitoneally (IP) administered on Day 5, 10, and 15, either alone or in combination with compound 23 at 30 mg/kg daily, PO.

In the case of `O=C(c1cc(Cc2n[nH]c(=O)c3ccccc23)ccc1F)N1CCN(C(=O)C2CC2)CC1` [olaparib, reference compound], the “tumor cell apoptosis (caspase 3/7)” value [1] is reported as “did not significantly increase tumor cell apoptosis” and the “tumor cell apoptosis (caspase 3/7)” value [2] is reported as “did not undergo a significant increase in apoptosis”.
With `CC(=O)O[C@H]1C(=O)[C@@]2(C)[C@H]([C@H](OC(=O)c3ccccc3)[C@]3(O)C[C@H](OC(=O)[C@H](O)[C@@H](NC(=O)c4ccccc4)c4ccccc4)C(C)=C1C3(C)C)[C@]1(OC(C)=O)CO[C@@H]1C[C@@H]2O` [paclitaxel, reference compound] the “tumor cell apoptosis (caspase 3/7)” value [3] was “did not undergo a significant increase in apoptosis”.
For rituximab [reference compound], the “survival compared to untreated mice” value ([4]; compound 23 30 mg/kg daily PO, rituximab 20 mg/kg IP Day 5, 10, 15, p<0.0001) was “significantly higher” and the “survival compared to mice treated with the combination of compound 23 and rituximab” value ([4]; p<0.0001) was “significantly lower”.
